{"source": "patent EP1946778A1", "about": "“Active substance combination for the treatment of diabetes” (Laboratorios del Dr. Esteve S.A., priority 2007, dated 2008)", "key": {"[1]": {"conditions": "olanzapine treatment of patients; literature; cited from earlier work"}, "[2]": {"experiment": "Feeding study in female DIO Wistar rats (COMPOUND A, COMPOUND B): body weight and food intake", "type": "in vivo", "conditions": "dietary-induced obese female Wistar rats; 10 mg/kg po once daily; end of the 28 day drug treatment period", "description": "(§1) The experiment was performed on female Wistar rats (originally in the weight range 250-300 g). The rats were housed in pairs in polypropylene cages with solid floors and sawdust bedding at a temperature of 21±4°C and 55±20% humidity. Animals were maintained on a reverse phase light-dark cycle (lights off for 8 h from 09.30-17.30 h) during which time the room was illuminated by red light. Animals had free access to powdered high fat diet (VRF1 plus 20% lard), ground chocolate, ground peanuts and tap water at all times. The three different diets were contained in separate glass feeding jars with aluminum lids with a 3-4 cm hole cut in it to allow access to the food. Animals were housed in pairs for twelve weeks for the induction of obesity. Animals were then housed singly in polypropylene cages with wire grid floors to enable the food intake of each rat to be recorded. Polypropylene trays with cage pads were placed beneath each cage to detect any food spillage. Animals were accustomed to these new conditions (individual housing and the wire-grid floor cages) for at least 14 days before the start of the baseline readings.\nApproximately a week before the start of the study, animals were weighed (to the nearest 0.1 g using an electronic top-pan balance) and allocated into 3 weight-matched treatment groups, each containing 9-10 animals. […]\nFood intake and body weight were measured once daily. […]"}, "[3]": {"experiment": "Plasma NEFA assay, female DIO Wistar rats (COMPOUND A, COMPOUND B)", "type": "in vivo", "conditions": "obese female Wistar rats; 30 mg/kg po once daily for 28 days", "description": "as §1, with “Animals were housed in pairs for twelve weeks for the induction of obesity.” left out, “Polypropylene trays with cage pads were placed beneath each cage to detect any food spillage.” left out, “readings. […]” for “readings.”\nNon-esterified (or free) fatty acids (NEFA) were determined by modification of a commercial clinical analyser assay kit (Wako NEFA C ACS-ACOD method) to a 96-well format. […] After exactly 10 minutes, 150 µl of reagent B was added and the plate incubated for a further 10 minutes after which optical density at 540 nm was determined using a Molecular Devices VERSAmax tunable microplate reader. […]"}, "[4]": {"experiment": "Plasma glycerol and triacylglycerol assay, female DIO Wistar rats (COMPOUND A, COMPOUND B)", "type": "in vivo", "conditions": "obese female Wistar rats; for reduction of plasma concentrations of triacylglycerol / reduction of plasma glycerol levels: 30 mg/kg po once daily for 28 days, vs vehicle", "description": "as §1\n(§2) Approximately a week before the start of the study, animals were weighed (to the nearest 0.1 g using an electronic top-pan balance) and allocated into 3 weight-matched treatment groups, each containing 9-10 animals. Following a 7 day baseline run-in period, during which the animals were dosed by the appropriate route (eg orally) once a day with vehicle (0.5% hydroxy-propyl-methylcellulose [HPMC]; 1 ml/kg) or the test drug, ie COMPOUND A (10mg and 30 mg/kg po) and COMPOUND B (10 mg and 30 mg/kg po) once daily for 28 days.\nTerminal blood samples via cardiac puncture were taken from the animals immediately after death into Sarstedt 4.5 ml lithium-heparin tubes (Cat No. 32.331). Tubes were then centrifuged at 1,500 g for 5 minutes at 4°C and the plasma removed and immediately frozen on dry ice (as 3 aliquots per sample in sealed Eppendorf tubes). Plasma samples were stored at -75°C until required for analysis. All determinations were performed on plasma samples that had been thawed only once.\nPlasma triacylglycerol was determined by modification of a discrete assay kit (Sigma Triglyceride determination kit, Cat No. TR0100) to a 96-well format. The kit actually determines liberated glycerol following enzymic hydrolysis of triacylglycerol to free fatty acids and glycerol (1 mole glycerol per mole of triacylglycerol). For this reason, correction for the glycerol concentration originally present in the plasma is required. Plasma samples were, therefore, assayed in the absence (free plasma glycerol) or presence (total triacylglycerol) of lipoprotein lipase. Subtraction of free glycerol from total triacylglycerol concentration then derives the true triacylglycerol concentration.\nA 2.5 mg/ml triolein equivalent glycerol standard was obtained from Sigma. The supplied Sigma mM conversion factor for this batch was 1.13 (ie 2.83 mM glycerol). A 10 mg/ml glycerol stock solution was prepared in saline and then diluted in saline to create a series of standard concentrations from 0.218 to 4.34 mM. Standards and plasma samples (undiluted) were pipetted into the 96-well plates as 10 µl additions in duplicate. Assay plates and reagents were preheated at 37°C and the reaction started by adding 200 µl of either the glycerol or total triacylglycerol reagent (reconstituted as per manufacturer's protocol) followed by incubation at 37°C for 5 minutes after which optical density at 540 nm was determined using a Molecular Devices VERSAmax tunable microplate reader. Optical density readings were then transferred to GraphPad Prism and unknown values extrapolated from a linear regression fit to the standard curve. The assay was linear up to the highest glycerol standard employed (4.34 mM). Subtraction of the glycerol concentration in the plasma samples from the total triacylglycerol concentration derived the true triacylglycerol concentration."}, "[5]": {"experiment": "Plasma leptin assay, female DIO Wistar rats (COMPOUND A, COMPOUND B)", "type": "in vivo", "conditions": "obese female Wistar rats", "description": "as §1, with “Polypropylene trays with cage pads were placed beneath each cage to detect any food spillage.” left out, “readings. […]” for “readings.”\nPlasma leptin concentration was determined using Assay Designs rat leptin enzyme immunometric assay kits (Cat No. 900-015) according to the manufacturer's regular protocol. […]\nOptical density at 450 nm was determined using a Molecular Devices VERSAmax tunable microplate reader and readings transferred to GraphPad Prism. […]"}, "[6]": {"experiment": "Plasma glycerol and triacylglycerol assay, female DIO Wistar rats (COMPOUND C)", "type": "in vivo", "conditions": "30 mg/kg po once daily for 28 days", "description": "as §1, with “250-300g).” for “250-300 g). The rats were housed in pairs in polypropylene cages with solid floors and sawdust bedding at a temperature of 21±4°C and 55±20% humidity.”, “aluminium” for “aluminum”, “readings. […]” for “readings.”\nPlasma triacylglycerol was determined by modification of a discrete assay kit (Sigma Triglyceride determination kit, Cat No. TR0100) to a 96-well format. […]\nA 2.5 mg/ml triolein equivalent glycerol standard was obtained from Sigma. […] Optical density readings were then transferred to GraphPad Prism and unknown values extrapolated from a linear regression fit to the standard curve. […]"}, "[7]": {"experiment": "Plasma leptin assay, female DIO Wistar rats (COMPOUND C)", "type": "in vivo", "conditions": "30 mg/kg po once daily for 28 days", "description": "as §1, with “250-300g).” for “250-300 g). The rats were housed in pairs in polypropylene cages with solid floors and sawdust bedding at a temperature of 21±4°C and 55±20% humidity.”, “aluminium” for “aluminum”, “readings. […]” for “readings.”\nPlasma leptin concentration was determined using Assay Designs rat leptin enzyme immunometric assay kits (Cat No. 900-015) according to the manufacturer's regular protocol. […] Optical density at 450 nm was determined using a Molecular Devices VERSAmax tunable microplate reader and readings transferred to GraphPad Prism. […]"}, "[8]": {"experiment": "Carcass composition (water, fat, protein, ash), female DIO Wistar rats (COMPOUND C)", "type": "in vivo", "conditions": "30 mg/kg po once daily for 28 days", "description": "as §1, with “250-300g).” for “250-300 g). The rats were housed in pairs in polypropylene cages with solid floors and sawdust bedding at a temperature of 21±4°C and 55±20% humidity.”, “aluminium” for “aluminum”\nas §2, with “2” for “3”, “10” for “9-10”, “(1% methylcellulose;” for “(0.5% hydroxy-propyl-methylcellulose [HPMC];”, “C (30” for “A (10mg and 30 mg/kg po) and COMPOUND B (10 mg and 30”\nTotal ether-extractable fat in the freeze-dried samples was estimated by the Soxhlet principle using a Foss Soxtec HT2 system. The protocol employed was based on the manufacturer's recommendations for meat samples, although freeze-dried samples obviated the necessity for either a fat hydrolysis step or mixing the sample with sand to ensure efficient extraction.\nSamples of approximately 1 g were accurately weighed into 26 mm x 60 mm cellulose extraction thimbles which were then plugged with approximately 0.8 g cotton wool. Sample fat was extracted into pre-weighed (including a few boiling chips) standard metal extraction cups using 70 ml of petroleum ether at 40-60°C, a circulator temperature of 115°C and a cooling flow rate of 2 l/min. A boiling stage of 25 min was employed, followed by a 40 min wash stage. A 10 min drying stage sufficed to remove ether from the extraction cups.\nPercentage fat in the freeze-dried sample was calculated as follows: % fat = [100 × (final cup weight-initial cup weight)]/sample weight [formula]\nPercentage fat in the original sample was calculated using the % water as follows: % fat in original sample = % fat × [(100-%water)/100] [formula]\nTotal protein in the freeze-dried samples was estimated using the Kjeldahl principle. A micro-Kjeldahl procedure was performed using a Foss 2012 digestion block and a Foss 2200 distilling unit. The protocol used was based on the manufacturer's recommendations for meat samples.\nApproximately 0.3 g of freeze-dried sample was accurately weighed into 100 ml digestion tubes (Foss UK Ltd) in racks of 12 tubes. Each rack included at least one blank tube to determine a reagent blank. To each tube was added two Kjeltabs CQ and one Antifoam S tablet followed by 10 ml of 98% sulphuric acid. Samples were digested at 420°C for 1 h to convert protein into ammonium sulphate. Once tubes had cooled, free ammonia was liberated by the addition of an excess of 40% NaOH and steam distilled into 30 ml of 4% boric acid indicator solution. Ammonia was then determined by titration against volumetric grade 0.1 M HCl using a Brand 25 ml digital burette. Nitrogen and protein content of the samples were calculated as follows: % nitrogen = [(sample titration-blank titration) × 0.1401]/sample weight(g)%protein = % nitrogen × 6.25 [formula]\nTotal ash in the freeze-dried samples was estimated by determining the non-combustible ash remaining after firing samples at high temperatures using a Carbolite OAF 11/1 muffle furnace. […]"}, "[9]": {"conditions": "10 mg/kg po once daily for 28 days"}}}
{"molecule": "Cc1cc2c(s1)Nc1ccccc1N=C2N1CCN(C)CC1", "note": "[olanzapine]", "values": [{"measurement": "mean increase in body weight", "setting": "[1]", "result": "~ 5 kg"}]}
{"molecule": "O=C(NN1CCCCC1)C1=NN(c2ccc(Cl)cc2Cl)[C@H](c2ccc(Cl)cc2)C1", "note": "[COMPOUND B, (S)-N-piperidinyl-5-(4-chlorophenyl)-1-(2,4-dichlorophenyl)-4,5-dihydro-1H-pyrazole-3-carboxamide]", "values": [{"measurement": "body weights lower than those of the vehicle-treated controls", "setting": "[2]", "result": 4.0, "unit": "%"}, {"measurement": "decrease of plasma NEFA levels compared to the vehicle-treated control group", "setting": "[3]", "result": 24.4, "unit": "%"}, {"measurement": "reduction of plasma concentrations of triacylglycerol", "setting": "[4]", "result": 52.1, "unit": "%"}, {"measurement": "reduction of plasma glycerol levels", "setting": "[4]", "result": 38.9, "unit": "%"}, {"measurement": "decrease of plasma leptin levels compared to the vehicle-treated control group", "setting": "[5]; [9]", "result": 13.7, "unit": "%"}, {"measurement": "decrease of plasma leptin levels compared to the vehicle-treated control group", "setting": "[5]; 30 mg/kg po once daily for 28 days", "result": 26.2, "unit": "%"}]}
{"molecule": "O=C(NN1CCCCC1)C1=NN(c2ccc(Cl)cc2Cl)[C@@H](c2ccc(Cl)cc2)C1", "note": "[COMPOUND A, (R)-N-piperidinyl-5-(4-chlorophenyl)-1-(2,4-dichlorophenyl)-4,5-dihydro-1H-pyrazole-3-carboxamide]", "values": [{"measurement": "plasma glycerol levels, effect vs vehicle", "setting": "[4]; [9]", "result": "no significant effect"}, {"measurement": "plasma triacylglycerol concentrations, effect vs vehicle", "setting": "[4]; [9]", "result": "no significant effect"}, {"measurement": "reduction of plasma concentrations of triacylglycerol", "setting": "[4]", "result": 42.0, "unit": "%"}, {"measurement": "reduction of plasma glycerol levels", "setting": "[4]", "result": 33.6, "unit": "%"}]}
{"molecule": "O=C(NN1CCCCC1)C1=NN(c2ccc(Cl)cc2Cl)C(c2ccc(Cl)cc2)C1", "note": "(racemic) [COMPOUND C, (rac)-N-piperidinyl-5-(4-chlorophenyl)-1-(2,4-dichlorophenyl)-4,5-dihydro-1H-pyrazole-3-carboxamide]", "values": [{"measurement": "reduction of plasma glycerol levels compared to the vehicle-treated control group", "setting": "[6]", "result": 23.4, "unit": "%"}, {"measurement": "reduction of triacylglycerol levels compared to the vehicle-treated control group", "setting": "[6]", "result": 37.2, "unit": "%"}, {"measurement": "plasma leptin concentrations, change compared to the vehicle-treated control group", "setting": "[7]", "result": -48.2, "unit": "%"}, {"measurement": "decrease in absolute body fat compared to the vehicle-treated control group", "setting": "[8]", "result": 57.7, "unit": "g"}, {"measurement": "decrease in body fat as share of the total weight-loss observed", "setting": "[8]", "result": 79.3, "unit": "%"}, {"measurement": "decrease in fat mass compared to the vehicle-treated control group", "setting": "[8]", "result": 36.9, "unit": "%"}, {"measurement": "reduction of total carcass water compared to the vehicle-treated control", "setting": "[8]", "result": 11.8, "unit": "g"}, {"measurement": "percentage ash content", "setting": "[8]; vehicle 2.77%", "result": 3.26, "unit": "%"}, {"measurement": "percentage protein content", "setting": "[8]; vehicle 15.5%", "result": 17.1, "unit": "%"}, {"measurement": "fat content as a percentage of carcass weight", "setting": "[8]; vehicle 31.9%", "result": 24.2, "unit": "%"}, {"measurement": "percentage water content of the carcasses", "setting": "[8]; vehicle 49.0%", "result": 54.3, "unit": "%"}, {"measurement": "mean body fat mass", "setting": "[8]; vehicle 156.3 g", "result": 98.6, "unit": "g"}, {"measurement": "reduction of final carcass weight", "setting": "[8]; vs vehicle (473.0 g)", "result": 72.8, "unit": "g"}]}
